Measurements reported in US8772478B2, “Benzenesulfonamide compounds, method for synthesizing same, and use thereof in medicine as well as in cosmetics” (Galderma Research & Development, priority 2009, dated 2014).
pIC50: −log10 of the molar value.

Assays:
[1] = target: TACE enzyme (Homo sapiens, UniProt P78536); experiment: Enzymatic assay for TACE inhibition; type: biochemical; settings: for % TACE inhibition at 10 μM: 10 μM compound
[2] = system: TACE enzyme; settings: from WO 00/44709, table 10, example 61; cited from earlier work
[3] = target: MMP1 (Homo sapiens (Human), UniProt P03956); experiment: Selectivity assay MMP1; type: biochemical
Chain of MMP1 (P03956 100-469, species assumed): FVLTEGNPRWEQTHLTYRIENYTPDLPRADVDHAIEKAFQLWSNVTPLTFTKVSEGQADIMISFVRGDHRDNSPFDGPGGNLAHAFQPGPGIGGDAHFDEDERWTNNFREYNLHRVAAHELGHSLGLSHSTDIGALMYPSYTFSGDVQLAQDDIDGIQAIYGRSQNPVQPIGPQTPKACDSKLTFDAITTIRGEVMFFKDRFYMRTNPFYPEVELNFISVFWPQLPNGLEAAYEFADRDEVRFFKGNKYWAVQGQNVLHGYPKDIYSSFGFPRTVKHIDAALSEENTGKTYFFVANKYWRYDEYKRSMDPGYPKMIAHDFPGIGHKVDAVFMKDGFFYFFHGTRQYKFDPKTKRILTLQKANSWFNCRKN

[4] = target: MMP3 (Homo sapiens (Human), UniProt P08254); experiment: Selectivity assay MMP3; type: biochemical
Chain of MMP3 (P08254 100-477, species assumed): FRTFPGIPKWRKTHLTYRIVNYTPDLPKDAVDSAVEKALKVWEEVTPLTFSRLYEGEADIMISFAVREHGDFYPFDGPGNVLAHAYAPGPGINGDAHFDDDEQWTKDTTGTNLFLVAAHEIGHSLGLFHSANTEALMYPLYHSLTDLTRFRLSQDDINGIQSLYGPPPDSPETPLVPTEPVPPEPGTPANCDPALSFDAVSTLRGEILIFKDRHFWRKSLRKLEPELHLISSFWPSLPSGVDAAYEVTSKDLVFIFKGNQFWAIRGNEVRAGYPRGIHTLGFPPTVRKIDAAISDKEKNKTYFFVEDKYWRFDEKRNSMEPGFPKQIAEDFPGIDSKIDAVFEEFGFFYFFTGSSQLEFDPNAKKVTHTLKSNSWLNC

[5] = target: ADAM9 (Homo sapiens (Human), UniProt Q13443); experiment: Selectivity assay ADAM9; type: biochemical
Chain of ADAM9 (Q13443 29-819, species assumed): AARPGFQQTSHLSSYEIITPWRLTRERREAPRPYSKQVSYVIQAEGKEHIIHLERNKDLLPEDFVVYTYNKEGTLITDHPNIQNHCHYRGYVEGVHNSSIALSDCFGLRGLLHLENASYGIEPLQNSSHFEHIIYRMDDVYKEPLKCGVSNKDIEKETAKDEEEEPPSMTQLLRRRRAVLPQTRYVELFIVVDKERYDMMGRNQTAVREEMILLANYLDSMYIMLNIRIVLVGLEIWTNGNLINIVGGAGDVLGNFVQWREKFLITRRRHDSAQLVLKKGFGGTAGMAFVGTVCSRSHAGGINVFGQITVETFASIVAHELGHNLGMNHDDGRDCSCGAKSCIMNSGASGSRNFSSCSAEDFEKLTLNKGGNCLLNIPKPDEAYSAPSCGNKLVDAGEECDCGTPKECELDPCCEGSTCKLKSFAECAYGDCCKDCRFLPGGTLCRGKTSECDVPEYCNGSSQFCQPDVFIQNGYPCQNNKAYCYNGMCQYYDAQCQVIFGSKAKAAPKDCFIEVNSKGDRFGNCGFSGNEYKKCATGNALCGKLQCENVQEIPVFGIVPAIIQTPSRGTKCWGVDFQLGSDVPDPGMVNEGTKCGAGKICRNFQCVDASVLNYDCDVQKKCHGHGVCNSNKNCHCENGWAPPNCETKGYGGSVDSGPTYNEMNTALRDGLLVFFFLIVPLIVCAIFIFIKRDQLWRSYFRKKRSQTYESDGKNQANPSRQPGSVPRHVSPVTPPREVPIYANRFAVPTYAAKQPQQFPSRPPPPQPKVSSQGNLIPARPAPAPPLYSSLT

[6] = target: MMP9 (Homo sapiens (Human), UniProt P14780); experiment: Selectivity assay MMP9; type: biochemical
Chain of MMP9 (P14780 94-707, species assumed): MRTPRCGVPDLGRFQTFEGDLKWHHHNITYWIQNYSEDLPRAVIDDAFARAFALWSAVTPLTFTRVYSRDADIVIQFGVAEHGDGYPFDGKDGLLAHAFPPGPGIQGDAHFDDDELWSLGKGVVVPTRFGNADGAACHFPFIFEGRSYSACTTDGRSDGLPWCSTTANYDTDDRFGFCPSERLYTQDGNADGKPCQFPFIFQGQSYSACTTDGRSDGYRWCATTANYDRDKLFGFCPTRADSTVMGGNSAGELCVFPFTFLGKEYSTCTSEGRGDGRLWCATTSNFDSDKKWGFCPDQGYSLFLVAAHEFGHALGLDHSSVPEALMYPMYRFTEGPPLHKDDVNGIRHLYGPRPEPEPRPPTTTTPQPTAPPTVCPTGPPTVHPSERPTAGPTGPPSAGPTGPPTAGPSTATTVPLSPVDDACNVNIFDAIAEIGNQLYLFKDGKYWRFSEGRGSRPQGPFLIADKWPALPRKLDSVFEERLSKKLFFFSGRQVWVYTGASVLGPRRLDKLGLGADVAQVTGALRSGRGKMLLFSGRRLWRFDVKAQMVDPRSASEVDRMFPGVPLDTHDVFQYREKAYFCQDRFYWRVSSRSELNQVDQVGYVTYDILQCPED

[7] = target: ADAM10 (Homo sapiens (Human), UniProt O14672); experiment: Selectivity assay ADAM10; type: biochemical
Chain of ADAM10 (O14672 214-748, species assumed): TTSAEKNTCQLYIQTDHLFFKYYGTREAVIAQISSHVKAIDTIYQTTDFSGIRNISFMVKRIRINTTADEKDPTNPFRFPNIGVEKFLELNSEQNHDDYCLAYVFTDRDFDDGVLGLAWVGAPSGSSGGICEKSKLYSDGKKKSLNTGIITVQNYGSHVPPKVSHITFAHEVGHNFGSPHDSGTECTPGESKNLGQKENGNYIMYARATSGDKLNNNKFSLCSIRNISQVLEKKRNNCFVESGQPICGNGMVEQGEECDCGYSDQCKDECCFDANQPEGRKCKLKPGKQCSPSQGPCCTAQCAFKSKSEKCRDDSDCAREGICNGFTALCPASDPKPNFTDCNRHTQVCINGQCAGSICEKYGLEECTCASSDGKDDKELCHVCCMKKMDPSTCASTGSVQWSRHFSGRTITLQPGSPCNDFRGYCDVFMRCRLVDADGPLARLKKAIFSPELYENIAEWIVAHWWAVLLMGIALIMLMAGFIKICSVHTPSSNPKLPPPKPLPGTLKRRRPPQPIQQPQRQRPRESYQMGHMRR

[8] = fluorescent substrate 40 μM, pH 7.4

Chain of TACE enzyme (Homo sapiens, UniProt P78536) (P78536 215-824 limits assumed): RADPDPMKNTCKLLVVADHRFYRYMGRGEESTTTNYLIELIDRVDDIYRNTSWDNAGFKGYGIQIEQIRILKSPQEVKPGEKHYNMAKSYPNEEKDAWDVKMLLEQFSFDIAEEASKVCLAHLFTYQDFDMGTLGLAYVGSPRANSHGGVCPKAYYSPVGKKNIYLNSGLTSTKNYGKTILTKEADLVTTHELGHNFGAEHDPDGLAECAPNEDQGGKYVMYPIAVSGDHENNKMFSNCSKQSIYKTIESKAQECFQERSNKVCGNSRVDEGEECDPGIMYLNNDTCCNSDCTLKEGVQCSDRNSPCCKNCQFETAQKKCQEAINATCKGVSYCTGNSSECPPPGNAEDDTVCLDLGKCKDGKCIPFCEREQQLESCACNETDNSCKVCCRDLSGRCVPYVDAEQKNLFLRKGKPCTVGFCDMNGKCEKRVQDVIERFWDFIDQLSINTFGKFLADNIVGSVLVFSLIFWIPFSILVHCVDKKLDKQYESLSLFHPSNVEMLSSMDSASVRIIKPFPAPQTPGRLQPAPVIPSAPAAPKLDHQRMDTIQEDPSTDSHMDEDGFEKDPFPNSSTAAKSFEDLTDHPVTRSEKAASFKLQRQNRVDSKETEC

% TACE inhibition at 10 μM [1] [%] | pIC50 [1, 8] | SMILES | also measured
97 | 6.60 | O=C(NO)[C@H](CNS(=O)(=O)c1ccc(OCc2ccc3ccccc3c2)cc1)N1CCCCC1 [Example 5, (S)—N-Hydroxy-3-[4-(naphthalen-2-ylmethoxy)benzenesulfonylamino]-2-piperidin-1-ylpropionamide] | 
98 | 6.74 | O=C(NO)[C@H](CNS(=O)(=O)c1ccc(OCc2ccccc2)cc1)N1CCCCC1 [Example 1, (S)-3-(4-benzyloxybenzenesulfonylamino)-N-hydroxy-2-piperidin-1-ylpropionamide] | 
 |  | CC1(C)SCCN(S(=O)(=O)c2ccc(OCC#CCO)cc2)[C@H]1C(=O)NO [Apratastat] | selectivity for the TACE enzyme compared with certain MMPs [2]: not selective
99 | 6.33 | O=C(NO)[C@H](CNS(=O)(=O)c1ccc(OCc2cc(Cl)cc(Cl)c2)cc1)N1CCCCC1 [Example 9, (S)-3-[4-(3,5-dichlorobenzyloxy)benzenesulfonylamino]-N-hydroxy-2-piperidin-1-ylpropionamide] | 
97 | 6.74 | O=C(NO)[C@H](CNS(=O)(=O)c1ccc(OCc2ccc(F)cc2)cc1)N1CCCCC1 [Example 3, (S)-3-[4-(4-fluorobenzyloxy)benzenesulfonylamino]-N-hydroxy-2-piperidin-1-ylpropionamide] | 
98 | 6.83 | O=C(NO)[C@H](CNS(=O)(=O)c1ccc(OCc2ccccc2)cc1)N1CCOCC1 [Example 7, (S)-3-(4-benzyloxybenzenesulfonylamino)-N-hydroxy-2-morpholin-4-ylpropionamide] | 
95 | 6.53 | O=C(NO)[C@H](CNS(=O)(=O)c1ccc(OCc2ccccc2)cc1)N1CCCC1 [Example 2, (S)-3-(4-benzyloxybenzenesulfonylamino)-N-hydroxy-2-pyrrolidin-1-ylpropionamide] | 
91 | 7.42 | Cc1cc(COc2ccc(S(=O)(=O)NC[C@@H](C(=O)NO)N3CCOCC3)cc2)c2ccccc2n1 [Example 14, (S)—N-hydroxy-3-[4-(2-methylquinolin-4-ylmethoxy)benzenesulfonylamino]-2-morpholin-4-ylpropionamide] | pIC50 [4]: 5.52; pIC50 ([1]; as listed in selectivity assay table): 7.62
97 | 6.48 | O=C(NO)[C@H](CNS(=O)(=O)c1ccc(OCc2ccc(Cl)c(Cl)c2)cc1)N1CCCCC1 [Example 6, (S)-3-[4-(3,4-dichlorobenzyloxy)benzenesulfonylamino]-N-hydroxy-2-piperidin-1-ylpropionamide] | 

SMILES | % TACE inhibition at 10 μM [1] [%] | pIC50 [1, 8] | also measured
Cc1cc(COc2ccc(S(=O)(=O)NC[C@@H](C(=O)NO)N3CCCCC3)cc2)c2ccccc2n1.Cl.Cl [Example 15, (S)—N-hydroxy-3-[4-(2-methylquinolin-4-ylmethoxy)benzenesulfonylamino]-2-piperidin-1-ylpropionamide dihydrochloride] | 98 |  | 
Cc1cc(COc2ccc(S(=O)(=O)NC[C@@H](C(=O)NO)N3CCCCC3)cc2)c2ccccc2n1 [Example 8, (S)—N-hydroxy-3-[4-(2-methylquinolin-4-ylmethoxy)benzenesulfonylamino]-2-piperidin-1-ylpropionamide] | 99 |  | pIC50 [3]: 5.52; pIC50 [4]: 5.35; pIC50 [5]: < 5.00; pIC50 [6]: < 5.00; pIC50 [7]: < 5.00
